# Source: ChEMBL document CHEMBL4725454, “Degradation of LRRK2 in the Treatment of Parkinson's Disease” (ACS Med Chem Lett, 2020)
# What was measured:
# [1] = biological target: Protein cereblon/Leucine-rich repeat serine/threonine-protein kinase 2 (Mus musculus, UniProt Q5S006+Q8C7D2, G2019S); assay: Protac activity at CRBN/LRRK2 G2019S homozygous knock-in mutant in mouse MEF cells assessed as induction of LRRK2 degradation by measuring reduction in LRRK2 phosphorylation at S935 residue by Invitrogen Adapta assay; type: cell-based
# [2] = biological target: Protein cereblon/Leucine-rich repeat serine/threonine-protein kinase 2 (Mus musculus, UniProt Q5S006+Q8C7D2); assay: Protac activity at CRBN/LRRK2 in mouse MEF cells assessed as induction of LRRK2 degradation by measuring reduction in LRRK2 phosphorylation at S935 residue by Invitrogen Adapta assay; type: cell-based
Structure (SMILES),IC50 [1] [nM],IC50 [2] [nM]
CC1(Oc2ccc3[nH]nc(-c4cc(N5CCN(C(=O)CCOCCNc6cccc7c6C(=O)N(C6CCC(=O)NC6=O)C7=O)CC5)ncn4)c3c2)CC1 (stereo unspecified),1.08,1.59
CC1(Oc2ccc3[nH]nc(-c4cc(N5CCN(C(=O)CCOCCNc6cccc7c6C(=O)N(C6CCC(=O)NC6=O)C7)CC5)ncn4)c3c2)CC1 (stereo unspecified),1.47,2.5
CC1(Oc2ccc3[nH]nc(-c4cc(N5CCN(C(=O)CCOCCOCCNc6cccc7c6C(=O)N(C6CCC(=O)NC6=O)C7)CC5)ncn4)c3c2)CC1 (stereo unspecified),2.24,2.58
CC1(Oc2ccc3[nH]nc(-c4cc(N5CCN(C(=O)CCOCCOCCOCCOCCNc6cccc7c6C(=O)N(C6CCC(=O)NC6=O)C7=O)CC5)ncn4)c3c2)CC1 (stereo unspecified),0.98,1.46
CNc1nc(Nc2ccc(C(=O)N3CCN(C(=O)CCOCCOCCOCCOCCNc4cccc5c4C(=O)N(C4CCC(=O)NC4=O)C5=O)CC3)cc2OC)ncc1C(F)(F)F (stereo unspecified),2,4
CNc1nc(Nc2ccc(C(=O)N3CCN(C(=O)CCCCCCCCOc4cccc5c4C(=O)N(C4CCC(=O)NC4=O)C5=O)CC3)cc2OC)ncc1C(F)(F)F (stereo unspecified),1,2
CC1(Oc2ccc3[nH]nc(-c4cc(N5CCN(C(=O)CCOCCOCCNc6cccc7c6C(=O)N(C6CCC(=O)NC6=O)C7=O)CC5)ncn4)c3c2)CC1 (stereo unspecified),1.13,1.24
CC1(Oc2ccc3[nH]nc(-c4cc(N5CCN(C(=O)CCOCCOCCOCCOCCNc6cccc7c6C(=O)N(C6CCC(=O)NC6=O)C7)CC5)ncn4)c3c2)CC1 (stereo unspecified),3.16,3.14
